Assay results from publication PMC12321279, “Novel 4,5‐Dihydrothiazole‐Phenylpiperazine Derivatives: Synthesis, Docking Studies and Pharmacological Evaluation as Serotonergic Agents” (Chemmedchem, 2025).
Several values for one entry are separate records, joined by “and”; a condition that tells them apart may be missing. Identical values can stand only once.

Tests used:
[1] = biological target: T1, 5‐HT1A receptor (Rattus norvegicus, UniProt P19327); assay: 5‐HT1A receptor activation in the [35S]GTP‐γ‐S assay (hippocampal membranes); assay type: biochemical; conditions: [35S]GTPγS, rat hippocampal membranes; for EC50: 95% CI in brackets, read-out: EC50 (95% CI, μM), 5‐HT1A receptor G‐protein stimulation
T1 construct: 80 μg of hippocampal membrane suspension (the 5‐HT1A assay); from tissue; host or cells: rat (Sprague-Dawley) hippocampus membranes
T1 sequence (P19327 1-422): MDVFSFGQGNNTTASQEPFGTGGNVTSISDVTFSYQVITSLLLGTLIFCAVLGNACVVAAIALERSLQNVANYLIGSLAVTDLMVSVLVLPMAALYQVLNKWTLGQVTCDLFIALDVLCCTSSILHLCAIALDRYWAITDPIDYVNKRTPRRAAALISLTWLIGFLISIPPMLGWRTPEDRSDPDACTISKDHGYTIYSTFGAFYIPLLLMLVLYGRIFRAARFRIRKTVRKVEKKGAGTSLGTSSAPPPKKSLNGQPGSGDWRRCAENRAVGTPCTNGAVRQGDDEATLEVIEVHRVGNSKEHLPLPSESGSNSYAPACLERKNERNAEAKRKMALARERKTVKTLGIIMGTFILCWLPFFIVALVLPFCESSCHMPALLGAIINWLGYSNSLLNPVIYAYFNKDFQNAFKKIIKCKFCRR
Method: Seven compound concentrations equally spaced on a log scale (10–4 M to 10–10 M) were incubated in duplicate with hippocampal membrane preparations (5μg per well) in assay buffer (50 mM Tris‐HCl, pH = 7.4, 1 mM EGTA, 3 mM MgCl2, 100 mM NaCl, and 30 μM GDP) and 0.08 nM [^35S]GTP‐γ‐S (specific activity: 1250 Ci mmole^−1, Revvity). Nonspecific binding was determined with 10μM of unlabeled GTP‐γ‐S. The final DMSO concentration in the assay was 5%. The reaction mixture was incubated for 90 min. at 30 °C on an orbital shaker set at 250 rpm. Next, the reaction mixture was deposited under vacuum with the FilterMate Harvester (Revvity, USA) onto Unifilter GF/C Plates (Revvity, MA, USA) presoaked with wash buffer (50 mM Tris‐HCl, pH = 7.4). The wells were then rapidly washed with 2 mL of wash buffer. Filter plates were dried overnight at room temperature. Once completely dry, 35 μl of MicroScint PS (Revvity, MA, USA) scintillation fluid was added to each well. Radioactivity was counted in a MicroBeta2 LumiJet scintillation counter (Revvity, MA, USA). Data were analyzed with GraphPad Prism 5.0 software (GraphPad Software, San Diego California USA, www.graphpad.com). The curves were fitted with three‐parameter non‐linear regression model.

[2] = biological target: T2, 5‐HT2A receptor (Rattus norvegicus, UniProt P14842); assay: Inhibition of 5‐HT‐evoked contractions in isolated rat ileum; set-up: segments (1–1.5 cm) of ileum were removed, flushed of luminal contents, and placed in Krebs solution; from tissue; host or cells: isolated rat (Sprague-Dawley) ileum segments; conditions: 5‐HT 10^−5 M, compounds 10^−8–10^−5 M; for IC50: IC50, inhibition of 5‐HT‐induced contractions in the rat ileum, contact time 10 min; for Emax: read-out: EMAX, maximal inhibitory effect on 5‐HT‐induced contractions in the rat ileum
T2 sequence (P14842 whole entry): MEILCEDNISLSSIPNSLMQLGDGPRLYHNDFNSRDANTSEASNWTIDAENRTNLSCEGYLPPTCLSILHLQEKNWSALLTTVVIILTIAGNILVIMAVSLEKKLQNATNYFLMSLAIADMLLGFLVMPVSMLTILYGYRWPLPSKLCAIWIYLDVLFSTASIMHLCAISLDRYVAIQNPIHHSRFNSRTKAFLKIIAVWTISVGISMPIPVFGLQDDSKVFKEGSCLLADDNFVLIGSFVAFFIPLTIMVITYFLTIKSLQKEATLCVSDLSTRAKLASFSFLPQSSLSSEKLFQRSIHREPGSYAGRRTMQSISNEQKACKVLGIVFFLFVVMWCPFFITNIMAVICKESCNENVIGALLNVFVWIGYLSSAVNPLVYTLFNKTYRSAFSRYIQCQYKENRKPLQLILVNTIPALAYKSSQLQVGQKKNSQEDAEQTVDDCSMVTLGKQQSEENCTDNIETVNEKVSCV
Method: Male rats (Sprague‐Dawley, 160–200 g; Charles River Laboratories; Calco, Italy) were manipulated and cared for in strict compliance with the principles of laboratory animal care. Experimental procedures were conducted in conformity with Italian (D.L. 26/2014) and European (directive 2010/63/EU) regulations on the protection of animals used for scientific purposes and approved by the Italian Ministry. Animal housing complied with recent pharmacological guidance.^[ [40] ^] All animals weighing 160–200 g were used after a 1‐week acclimation period (temperature 23 ± 2 °C; humidity 60%, free access to water and standard food).
The segments were prepared as previously described:^[ [41] ^] the segments were set up in such a way as to record contractions mainly from the longitudinal axis, in an organ bath containing 20 mL of Krebs solution, bubbled with 95% O2 and 5% CO2 and maintained at 37 °C. The tissues were connected to an isotonic transducer (load: 0.5 g), connected to Power Lab system (Ugo Basile, Comerio, Italy). Ileal segments were equilibrated for 60 min^[ [16] ^] followed by three repeated additions of submaximal concentration of 5‐HT (10^−5 M) in order to record stable control contractions. […] The contact time for each concentration was 10 min. The compounds were dissolved in DMSO. […] Results are expressed as mean (SEM). […] The IC50 and Emax values were calculated with the aid of a computer program (GraphPad Prism 5).

[3] = biological target: T1, 5‐HT1A receptor; assay: 5‐HT1A competition binding assay ([3H]8‐OH‐DPAT, hippocampal membranes); conditions: 1 nM [3H]8‐OH‐DPAT, 95% CI in brackets, read-out: 5‐HT1A Ki (95% CI)
Method: (§1) Sprague‐Dawley rats were sacrificed by isoflurane overdose. Brains were rapidly removed and placed on ice. Hippocampi (for the 5‐HT1A assay) and frontal cortices (for the 5‐HT2A and 5‐HT2C assays) were dissected on a Petri dish. The tissue from 10 rats was homogenized in 30 vol. homogenization buffer (50 mM Tris–HCl, […], 1 mM EDTA, 1 mM dithiothreitol) with a handheld Teflon‐glass homogenizer. The homogenate was centrifuged at 48,000 × g at 4 °C for 15 min. The pellet was suspended and homogenized in the homogenization buffer and incubated for 10 min. at 36 °C. The centrifugation and suspension steps were repeated twice. The final pellet was homogenized in 5 vol. 50 mM Tris–HCl, pH = 7.4 buffer and stored at −80 °C for no longer than 6 months. […] For the 5‐HT2C assay, compounds were incubated in duplicate with 5 nM [^3H]mesulergine (specific activity: 80.2 Ci mmol^−1, Revvity, MA, USA) for 60 min. at 36 °C in a 50 mM Tris‐HCl (pH 7.4) buffer, supplemented with 5 mM MgCl2, 140 mM NaCl, 1 mM DTT, 1 mM CaCl2, 10 μM pargyline and 160μg of the frontal cortex membrane suspension. Non‐specific binding was determined with 10μM serotonin. The final DMSO concentration in the assay was 5%. After incubation, the reaction mixture was deposited onto Unifilter GF/C plates (Revvity, MA, USA) presoaked in 0.4% PEI (or 0.4% PEI and 0.5% Triton X‐100 for the 5‐HT2C assay) for 1 h with the FilterMate‐96 Harvester (Revvity, MA, USA). Then, each well was washed with 2 mL of 50 mM Tris–HCl (pH 7.4) buffer to separate bound ligands from free and the plates were left to dry overnight. Then, 35μl of Microscint‐20 scintillation fluid (Revvity, MA, USA) was added to each filter well and left to equilibrate for 2h. Filter‐bound radioactivity was counted in a MicroBeta2 LumiJet scintillation counter (Revvity, MA, USA). Binding curves were fitted with one site non‐linear regression. Binding affinity (pKi and Ki) for each compound was calculated from the […] values with the Cheng‐Prusoff equation from two separate experiments.

[4] = biological target: T2, 5‐HT2A receptor; assay: 5‐HT2A competition binding assay ([3H]ketanserin, frontal cortex membranes); set-up: from tissue; host or cells: rat (Sprague-Dawley) frontal cortex membranes; conditions: 1 nM [3H]ketanserin, 95% CI in brackets, read-out: 5‐HT2A Ki (95% CI)
[5] = biological target: T3, 5‐HT2C receptor (Rattus norvegicus, UniProt P08909); assay: 5‐HT2C competition binding assay ([3H]mesulergine, frontal cortex membranes); conditions: 5 nM [3H]mesulergine, 95% CI in brackets, read-out: 5‐HT2C Ki (95% CI)
T3 construct: 10 μM pargyline and 160μg of the frontal cortex membrane suspension; from tissue; host or cells: rat (Sprague-Dawley) frontal cortex membranes
T3 sequence (P08909 33-460): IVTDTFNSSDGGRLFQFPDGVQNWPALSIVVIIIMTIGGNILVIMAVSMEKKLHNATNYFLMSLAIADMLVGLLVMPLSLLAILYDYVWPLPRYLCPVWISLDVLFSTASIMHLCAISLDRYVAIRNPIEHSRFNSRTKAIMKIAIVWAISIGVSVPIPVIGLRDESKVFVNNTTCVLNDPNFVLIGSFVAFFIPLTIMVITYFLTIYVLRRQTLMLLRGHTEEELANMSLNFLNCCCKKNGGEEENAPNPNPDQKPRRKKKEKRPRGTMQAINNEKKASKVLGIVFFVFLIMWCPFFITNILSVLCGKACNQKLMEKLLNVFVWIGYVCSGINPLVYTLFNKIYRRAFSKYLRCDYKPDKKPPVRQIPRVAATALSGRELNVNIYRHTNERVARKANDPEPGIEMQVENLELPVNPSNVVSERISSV
Method: as §1

| Structure (SMILES) | EC50 [1] [µM] | Emax ([1]; read-out: Emax (%) ± SEM, 5‐HT1A receptor G‐protein stimulation) [%] | EMAX, maximal inhibitory effect on 5‐HT‐induced contractions in the rat ileum [2] [%] | IC50 [2] [nM] | Ki [3] | Ki [4] [nM] | Ki [5] [nM] | Emax (%) ± SEM, 5‐HT1A receptor G‐protein stimulation [1] [%] | Emax [2] [%] |
| --- | --- | --- | --- | --- | --- | --- | --- | --- | --- |
| O=C(NCCCN1CCN(c2cccc(C3=NCCS3)c2)CC1)C1CC2C=CC1C2 (stereo not drawn) [FG‐14, Exo‐N‐(3‐(4‐(3‐(4,5‐dihydrothiazol‐2‐yl)phenyl)piperazin‐1‐yl)propyl) bicyclo [2.2.1] hept‐5‐ene‐2‐carboxamide] | 23.3 | 133 ± 5.7 | 22.48 | 2590 | 340 nM | 430 | 72 | – | – |
| O=C(NCCCN1CCN(c2ccccc2C2=NCCS2)CC1)C1CC2C=CC1C2 (stereo not drawn) [FG‐16, Endo‐N‐(3‐(4‐(2‐(4,5‐dihydrothiazol‐2‐yl)phenyl)piperazin‐1‐yl)propyl) bicyclo[2.2.1] hept‐5‐ene‐2‐carboxamide] | 41 | – | – | 6350 | 25 nM and 25.1 nM | 1370 | 4830 | 127 ± 3.2 | 39.1 |
| O=C(NCCCN1CCN(c2cccc(C3=NCCS3)c2)CC1)C1CC2C=CC1C2 (stereo not drawn) [FG‐17, Endo‐N‐(3‐(4‐(3‐(4,5‐dihydrothiazol‐2‐yl)phenyl)piperazin‐1‐yl)propyl) bicyclo[2.2.1]hept‐5‐ene‐2‐carboxamide] | 21.1 | – | – | 1250 | 823 nM | 6060 | 1660 | 134 ± 2.5 | 25 |
